Results as given in paper PMC5678437, “A new antagonist for CCR4 attenuates allergic lung inflammation in a mouse model of asthma” (Scientific Reports, 2017).

How the values were obtained:
CCR4 = biological target: T1, CCR4 (Homo sapiens, UniProt P51679); assay: Chemotaxis inhibition assay, pcDI-CCR4-transfected HEK293 cells; assay type: cell-based; settings: 1 μM compound, 30 min pretreatment; C27 100 ng/ml; compared with compound 22 and compound 6b
T1 construct: expressed in transfected cells; cell membrane extract
T1 sequence (P51679 1-360): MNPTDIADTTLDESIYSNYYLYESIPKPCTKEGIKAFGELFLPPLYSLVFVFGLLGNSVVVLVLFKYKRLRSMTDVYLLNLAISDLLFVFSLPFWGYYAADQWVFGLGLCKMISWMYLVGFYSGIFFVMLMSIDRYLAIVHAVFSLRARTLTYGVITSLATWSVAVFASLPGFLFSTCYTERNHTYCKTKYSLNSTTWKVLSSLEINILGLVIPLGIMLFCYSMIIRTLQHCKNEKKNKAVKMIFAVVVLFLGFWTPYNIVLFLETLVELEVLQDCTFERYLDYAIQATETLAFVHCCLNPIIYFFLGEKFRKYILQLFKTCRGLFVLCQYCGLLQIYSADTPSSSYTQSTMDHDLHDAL
Description: Chemokine receptor expression plasmid was transiently transfected into HEK293 by electroporation at 120 V for 20 ms, using an electric pulse generator (Electro Square Porator ECM 830; BTX, San Diego, CA). Forty-eight-well micro chemotaxis chambers (Neutroprobe, Bethesda, MD, USA) were used in this assay. Forty-eight hours later, the cells were pretreated with compounds or compounds dissolved medium (1‰ DMSO) for 30 min at 37 °C prior to stimulation with chemoattractant. Chemoattractant diluted in RPMI 1640 medium supplemented with 0.1% bovine serum albumin (BSA) was placed in the lower chambers (27.5 μl/well). In these assays, CCL22 and CCL17 (Peprotech, Rocky Hill, NJ, USA) were used as chemoattractant and the final concentrations of chemoattractant were 10 ng/ml and 80 ng/ml respectively. The pcDI-CCR4-transfected HEK293 cells were resuspended in the same medium at a density of 1 × 10^6 cells/ml and added to the upper chambers (55 μl/well). […] Cells that migrated into each filter were counted in five randomly selected high-power fields (400 × ) per well. […] The chemotactic index was calculated and expressed as the number of cells that migrated to the sample over the number of cells that migrated to the control medium.

IL-4 = IL-4 in lung homogenate by ELISA in OVA-induced asthmatic mice; assay type: in vivo, BALB/c mice; settings: 5 mg inhaled aerosol; after OVA challenge
Description: Male BALB/c 6 week old mice were purchased from the Experimental Animal Center of Zhejiang University. All mice were raised in a specific pathogen-free animal facility. All animal experiments were carried out according to the guidelines for the care and use of laboratory animals and were approved by the ethics committee of Zhejiang University and Peking University, China.
Mice were sensitized and challenged with chicken egg OVA (sigma-Aldrich, St Louis, MO, USA) as described in details previously. Briefly, after sensitized by intraperitoneal injection of 100 μl (80 μg) OVA in 100 μl alum (Pierce, Rockford, IL, USA) on days 0 and 14, mice were exposure to 1% OVA aerosols for 40 min on days 24–26. Control mice were injected intraperitoneally with saline and exposed to saline aerosols.
Compound 8a was dissolved in saline with DMSO (0.5%). Half an hour before each OVA challenge, the groups of mice treated with various doses of compound 8a (0.2, 1, 5 mg) inhaled aerosolized compound 8a for 45 min on days 24–26. […]
Twenty-four hours after the last challenge, lungs were removed from control or asthmatic mice, and they were cut into pieces and homogenized in 500 μl PBS, centrifuged (2000 rpm, 10 min) and the supernatant collected. The concentration of IL-4 in lungs were determined by ELISA kit (Sensitivity: 2 pg/ml, R&D Systems, Minneap-olis, MN, USA) following the manufacturer’s protocol.

CXCR1 = biological target: T2, CXCR1 (Homo sapiens, UniProt P25024); assay: Chemotaxis assay for receptor specificity, HEK293-CXCR1; assay type: cell-based; settings: compound as chemoattractant in lower chamber, 0.2, 1, 5, 25 μM
T2 construct: expressed in transfected cells; host or cells: HEK293; plasmid gift of Dr. Philip M. Murphy (NIAID, NIH)
T2 sequence (P25024 1-350): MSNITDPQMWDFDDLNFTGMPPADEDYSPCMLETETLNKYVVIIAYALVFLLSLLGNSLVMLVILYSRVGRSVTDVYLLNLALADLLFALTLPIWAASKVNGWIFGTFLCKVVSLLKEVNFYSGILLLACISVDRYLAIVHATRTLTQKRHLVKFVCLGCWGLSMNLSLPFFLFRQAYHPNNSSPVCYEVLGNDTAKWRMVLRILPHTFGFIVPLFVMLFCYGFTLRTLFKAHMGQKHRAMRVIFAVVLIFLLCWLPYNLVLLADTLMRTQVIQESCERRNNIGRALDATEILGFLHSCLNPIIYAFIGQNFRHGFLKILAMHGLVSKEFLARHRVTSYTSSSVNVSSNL
Description: HEK293 cells were transfected with different chemokine receptors. Compound 8a with DMSO was diluted to 0.2 mM, 1 mM, 5 mM and 25 mM, and then we used RPMI 1640 medium containing 0.1% BSA for dilution. The final concentration is: 0.2 μM, 1 μM, 5 μM and 25 μM. DMSO was also diluted 1000-fold with 0.1% BSA RPMI 1640 medium. Chemokines was also diluted to an appropriate concentration. The dilutions of Compound 8a, 1‰ DMSO, the corresponding chemokines of different receptors and 0.1% BSA RPMI 1640 medium were placed in the lower chambers (27.5 μl/well). The transfected HEK293 cells were resuspended in the same medium at a density of 1 × 10^6 cells/ml and added to the upper chambers (55 μl/well).

inhibition of chemotaxis of CCR4 transfected HEK293 to C27 (CCR4): more positive efficiency | chemotaxis effect of the compound on HEK293-CXCR1 (CXCR1): didn’t exert chemotaxis effects
SMILES: O=C(C1CCCCN1)N1CCN(c2nc(Cl)cc(NCc3ccc(Cl)cc3Cl)n2)CC1 (stereo not drawn) [compound 8a, {4-[4-Chloro-6-(2,4-dichloro-benzylamino)-pyrimidin-2-yl]-piperazin-1-yl}-piperidin-2-yl-methanone]
expression of IL-4 in lungs (ELISA) (IL-4): notably decreased
